# Values joined by “and” are separate entries in the source; they are usually repeats but may differ in a detail not shown here. Identical values can stand only once.
# Assay: Biodistribution studies of the 18F tracers in rats
# Format: in vivo, male Wistar rats
# Settings: rat, i.v.
# Experimental: Biodistribution studies were carried out in healthy male Wister rats (body weight 200-500 g) at 2 min, 30 min and 60 min post injection (p.i.) (n=3/time point). For |^18F|B-4 only the 2 min and 30 min time points were studied. […] Blood and major organs were collected in tared tubes and weighed. The radioactivity in blood, organs and other body parts was measured using an automated gamma counter. The distribution of radioactivity in different parts of the body at different time points p.i. of the tracer was calculated and expressed as percentage of injected dose (% ID), and as percentage of injected dose per gram tissue (% ID/g) for the selected organs. % ID is calculated as cpm in organ/total cpm recovered. For calculation of total radioactivity in blood, blood mass was assumed to be 7% of the body mass.
smiles,measurement,setting,value
COc1ccc(COc2ccc(-c3nn(CC[18F])cc3-c3ccncc3)cc2)nc1 [[^18F]B-4],"% ID/g, Striatum",2 min p.i.,0.467 ± 0.002 % ID/g
same,striatum/blood ratio (from % ID/g normalized for body weight),2 min p.i.,3.47
same,striatum/cortex ratio (from % ID/g normalized for body weight),2 min p.i.,1.35
same,striatum/hippocampus ratio (from % ID/g normalized for body weight),2 min p.i.,2.49
same,total initial brain uptake,2 min p.i.,0.40 % ID
same,% ID in the urinary system,30 min p.i.,~2.5 % ID
same,"% ID, Blood",30 min p.i.,3.35 ± 0.5 % ID
same,"% ID, Carcass",30 min p.i.,26.15 ± 1.2 % ID
same,"% ID, Cerebellum",30 min p.i.,0.028 ± 0.002 % ID
same,"% ID, Cerebrum total",30 min p.i.,0.208 ± 0.027 % ID
same,"% ID, Cortex",30 min p.i.,0.022 ± 0.002 % ID
same,"% ID, Heart",30 min p.i.,0.28 ± 0.1 % ID
same,"% ID, Hippocampus",30 min p.i.,0.004 ± 0.000 % ID
same,"% ID, Intestines",30 min p.i.,12 % ID and 11.98 ± 1.9 % ID
same,"% ID, Kidneys",30 min p.i.,1.71 ± 0.3 % ID
same,"% ID, Liver",30 min p.i.,47 % ID and 47.40 ± 3.5 % ID
same,"% ID, Lungs",30 min p.i.,0.35 ± 0.1 % ID
same,"% ID, Rest of cerebrum",30 min p.i.,0.162 ± 0.030 % ID
same,"% ID, Spleen + Pancreas",30 min p.i.,0.56 ± 0.1 % ID
same,"% ID, Stomach",30 min p.i.,8 % ID and 8.08 ± 3.7 % ID
same,"% ID, Striatum",30 min p.i.,0.019 % ID and 0.019 ± 0.003 % ID
same,"% ID, Urine",30 min p.i.,0.75 ± 0.1 % ID
same,"% ID/g normalized for body weight, Blood",30 min p.i.,0.05 ± 0.01 % ID/g × body wt. in kg
same,"% ID/g normalized for body weight, Cerebellum",30 min p.i.,0.029 ± 0.00 % ID/g × body wt. in kg
same,"% ID/g normalized for body weight, Cerebrum + Cerebellum",30 min p.i.,0.04 ± 0.00 % ID/g × body wt. in kg
same,"% ID/g normalized for body weight, Cerebrum total",30 min p.i.,0.043 ± 0.00 % ID/g × body wt. in kg
same,"% ID/g normalized for body weight, Cortex",30 min p.i.,0.040 ± 0.01 % ID/g × body wt. in kg
same,"% ID/g normalized for body weight, Heart",30 min p.i.,0.07 ± 0.01 % ID/g × body wt. in kg
same,"% ID/g normalized for body weight, Hippocampus",30 min p.i.,0.029 ± 0.00 % ID/g × body wt. in kg
same,"% ID/g normalized for body weight, Kidneys",30 min p.i.,0.19 ± 0.03 % ID/g × body wt. in kg
same,"% ID/g normalized for body weight, Liver",30 min p.i.,1.05 ± 0.03 % ID/g × body wt. in kg
same,"% ID/g normalized for body weight, Lungs",30 min p.i.,0.07 ± 0.00 % ID/g × body wt. in kg
same,"% ID/g normalized for body weight, Rest of cerebrum",30 min p.i.,0.041 ± 0.00 % ID/g × body wt. in kg
same,"% ID/g normalized for body weight, Spleen + Pancreas",30 min p.i.,0.11 ± 0.01 % ID/g × body wt. in kg
same,"% ID/g normalized for body weight, Striatum",30 min p.i.,0.125 % ID/g × body wt. in kg and 0.125 ± 0.01 % ID/g × body wt. in kg
same,"% ID/g, Blood",30 min p.i.,0.18 ± 0.03 % ID/g
same,"% ID/g, Cerebellum",30 min p.i.,0.104 ± 0.005 % ID/g
same,"% ID/g, Cerebrum + Cerebellum",30 min p.i.,0.151 ± 0.016 % ID/g
same,"% ID/g, Cerebrum total",30 min p.i.,0.157 ± 0.019 % ID/g
same,"% ID/g, Cortex",30 min p.i.,0.145 ± 0.026 % ID/g
same,"% ID/g, Heart",30 min p.i.,0.24 ± 0.04 % ID/g
same,"% ID/g, Hippocampus",30 min p.i.,0.108 ± 0.013 % ID/g
same,"% ID/g, Kidneys",30 min p.i.,0.68 ± 0.12 % ID/g
same,"% ID/g, Liver",30 min p.i.,3.85 ± 0.04 % ID/g
same,"% ID/g, Lungs",30 min p.i.,0.24 ± 0.02 % ID/g
same,"% ID/g, Rest of cerebrum",30 min p.i.,0.149 ± 0.019 % ID/g
same,"% ID/g, Spleen + Pancreas",30 min p.i.,0.40 ± 0.02 % ID/g
same,"% ID/g, Striatum",30 min p.i.,0.458 ± 0.041 % ID/g
same,"radioactivity concentration, the other brain regions (than striatum)",30 min p.i.,≤ 0.040 % ID/g corrected for body weight
same,striatum/blood ratio (from % ID/g normalized for body weight),30 min p.i.,2.61
same,striatum/cerebellum ratio (from % ID/g normalized for body weight),30 min p.i.,4.38
same,striatum/hippocampus ratio (from % ID/g normalized for body weight),30 min p.i.,4.25

# Reference: patent publication US8852554B2, “Radiolabelled PDE10 ligands” (Janssen Pharmaceutica NV, priority 2009, dated 2014)
